Active and inactive are the calls of the source. The calls are words filed in the database; no cut-off is given here.
Key:
RAW264.7 [1] = test: Antiinflammatory activity against mouse RAW264.7 cells assessed as inhibition of LPS-induced NO production at 80 uM preincubated for 2 hrs followed by LPS stimulation measured after 24 hrs by Griess reagent based assay relative to control; assay type: functional
RAW264.7 [2] = test: Antiinflammatory activity against mouse RAW264.7 cells assessed as inhibition of LPS-induced TNFalpha production preincubated for 1 hr followed by LPS stimulation measured after 24 hrs by ELISA; assay type: functional, cell-based
RAW264.7 [3] = test: Antiinflammatory activity against mouse RAW264.7 cells assessed as inhibition of LPS-induced IL-6 production preincubated for 1 hr followed by LPS stimulation measured after 24 hrs by ELISA; assay type: functional, cell-based
RAW264.7 [4] = test: Antiinflammatory activity against mouse RAW264.7 cells assessed as inhibition of LPS-induced NO production preincubated for 2 hrs followed by LPS stimulation measured after 24 hrs by Griess reagent based assay; assay type: functional, cell-based
Mus musculus = organism: Mus musculus; test: Protection against hypoxia-induced injury in […] cells assessed as increase in cell viability at 40 uM incubated for 20 hrs under hypoxia condition by CCK-8 assay; assay type: functional, cell-based
[5] = Cytotoxicity against […] cells assessed as decrease in cell viability at 20 uM incubated for 24 hrs by CCK-8 assay; assay type: cell-based

Row | Structure (SMILES) | inhibition at 80 µM (RAW264.7 [1]) [%] | inhibition (RAW264.7 [2]) | inhibition (RAW264.7 [3]) | IC50 (RAW264.7 [4]) [µM] | also measured
1 | CO[C@@H]1CC[C@@]2(C)O[C@@H]2CC(C)(C)/C=C/C(=O)[C@@H]1C | < 50 |  |  |  | 
2 | C/C1=C\CC(C)(C)/C=C/C(=O)[C@@H](CO)CCC1 |  | Dose-dependent effect | Dose-dependent effect | 70.6 | 
3 | C/C1=C\CC(C)(C)/C=C/C(=O)[C@@H](C)[C@@H](O)CC1 | < 50 |  |  |  | 
4 | C/C1=C\CC(C)(C)/C=C/C(=O)[C@H](CO)CCC1 |  | Dose-dependent effect | Dose-dependent effect | 33.1 | 
5 | C=C1CC[C@H](O)[C@H](C)C(=O)C[C@@H]2[C@@H]1CC2(C)C | < 50 |  |  |  | 
6 | COC1CC/C(C)=C/CC(C)(C)/C=C/C(=O)C1CO (centres undefined) |  | Dose-dependent effect | Dose-dependent effect | 18.1 | Activity (Mus musculus): Active
7 | C/C1=C\CC(C)(C)/C=C/C(=O)[C@H](C)[C@H](O)CC1 | < 50 |  |  |  | 
8 | C/C1=C\CC[C@@]2(C)O[C@@H]2CC(C)(C)/C=C/C1=O [ZERUMBONE EPOXIDE] |  | Dose-dependent effect | Dose-dependent effect | 22.3 | 
9 | CO[C@H]1CC[C@]2(C)O[C@H]2CC(C)(C)/C=C/C(=O)[C@H]1C | < 50 |  |  |  | 
10 | C/C1=C\C[C@H](O)[C@]2(C)O[C@H]2CC(C)(C)/C=C/C1=O | < 50 |  |  |  | 
11 | COc1ccc2c(c1)c(CC(=O)O)c(C)n2C(=O)c1ccc(Cl)cc1 [INDOMETHACIN] |  |  |  | 33.6 | 
12 | C/C1=C\CC(C)(C)/C=C/[C@H](O)[C@H](C)CCC1 | < 50 |  |  |  | 
13 | CO[C@H]1CC/C(C)=C/CC(C)(C)/C=C/C(=O)[C@@H]1CO |  | Dose-dependent effect | Dose-dependent effect | 41.4 | 
14 | C/C1=C\CC[C@@]2(C)O[C@@H]2[C@@H](O)C(C)(C)/C=C/C1=O | < 50 |  |  |  | 
15 | C=C1C(=O)C/C=C(\C)[C@@H](O)C[C@@H]2[C@@H]1CC2(C)C | < 50 |  |  |  | 
16 | C/C1=C\CC(C)(C)/C=C/C(=O)/C(C)=C/CC1 [ZERUMBONE] |  | Dose-dependent effect | Dose-dependent effect | 13.6 | Activity (Mus musculus): Active
17 | C/C1=C\CC(C)(C)/C=C/C(=O)/C(CO)=C/CC1 |  |  |  |  | Activity [5]: Toxic
18 | CC1(C)C/C=C(/C=O)CC[C@H]2[C@H]1CC(=O)[C@]2(C)O | < 50 |  |  |  | 
19 | C=C1CC[C@H]2O[C@]2(C)[C@@H](O)C[C@@H]2[C@@H]1CC2(C)C [SUBEROSOL A] | < 50 |  |  |  | 
20 | CCC(=O)/C=C/C(C)(C)C/C=C(\C)CCC=O | < 50 |  |  |  | 
21 | CC1(C)C/C=C(/C=O)CC[C@@H]2[C@@H]1CC(=O)[C@@]2(C)O | < 50 |  |  |  | 
22 | CO[C@@H]1CC/C(C)=C/CC(C)(C)/C=C/C(=O)[C@H]1CO |  | Dose-dependent effect | Dose-dependent effect | 27.2 | Activity (Mus musculus): Active

Reference: ChEMBL document CHEMBL4196103, “Bioactive Sesquiterpenoids from the Peeled Stems of Syringa pinnatifolia” (J Nat Prod, 2018)
